Assay results reported in US11236081B2, “Crystalline salts of corydalmine” (priority 2018, dated 2022).
“And” between values parts separate entries of the source, which are not always exact repeats. Equal values may be shown once.

What was measured:
[1] = Pharmacokinetic study: plasma concentration and plasma PK parameters after IV/PO dosing (LC-MS/MS, WinNonlin); format: in vivo, Male SD Rat; settings: PO (group POF), 10 mg/kg, 10 mg/kg
Excerpt: Pharmacokinetic and Brain Penetration Study
Dose formulation processing during dosing: The dose formulations will be kept at room temperature.
Concentrations of Test Article in the plasma samples will be analyzed using a LC-MS/MS method.
WinNonlin (Phoenix™, version 6.1) or other similar software will be used for pharmacokinetic calculations. The following pharmacokinetic parameters will be calculated, whenever possible from the plasma concentration versus time data:
IV administration: T1/2, C0, AUClast, AUCinf, MRTinf, Cl, Vss, Number of Points for Regression.
PO administration: T1/2, Cmax, Tmax, MRTinf, AUCinf, AUClast, F %, Number of Points for Regression.
The pharmacokinetic data will be described using descriptive statistics such as mean, standard deviation.

[2] = Solubility studies in water at 2 hours; format: physicochemical
[3] = plasma, individual rats R49, R50, R51

COc1cc2c(cc1OC)[C@@H]1Cc3ccc(O)c(OC)c3CN1CC2.O=S(=O)(O)O [TLZ-16 sulfate]
F ([1]; individual rats R49, R50, R51): 24.8% and 31.7% and 44.5%
F, Mean ([1]; mean of R49-R51): 33.7%
concentration in plasma, Conc. ([1]; time 0 h, individual rats R49, R50, R51): BLOQ (BLOQ = below limit of quantitation (0.2 ng/mL))
concentration in plasma, Conc. ([1]; time 0.25 h, individual rats R49, R50, R51): 231 ng/mL and 226 ng/mL and 349 ng/mL
concentration in plasma, Mean ([1]; time 0.25 h, mean of R49-R51): 269 ng/mL
concentration in plasma, Conc. ([1]; time 0.5 h, individual rats R49, R50, R51): 229 ng/mL and 223 ng/mL and 401 ng/mL
concentration in plasma, Mean ([1]; time 0.5 h, mean of R49-R51): 284 ng/mL
concentration in plasma, Conc. ([1]; time 1 h, individual rats R49, R50, R51): 117 ng/mL and 161 ng/mL and 240 ng/mL
concentration in plasma, Mean ([1]; time 1 h, mean of R49-R51): 173 ng/mL
concentration in plasma, Conc. ([1]; time 2 h, individual rats R49, R50, R51): 119 ng/mL and 152 ng/mL and 189 ng/mL
concentration in plasma, Mean ([1]; time 2 h, mean of R49-R51): 153 ng/mL
concentration in plasma, Conc. ([1]; time 4 h, individual rats R49, R50, R51): 103 ng/mL and 110 ng/mL and 203 ng/mL
concentration in plasma, Mean ([1]; time 4 h, mean of R49-R51): 139 ng/mL
concentration in plasma, Conc. ([1]; time 8 h, individual rats R49, R50, R51): 22.4 ng/mL and 39.9 ng/mL and 87.8 ng/mL
concentration in plasma, Mean ([1]; time 8 h, mean of R49-R51): 50.0 ng/mL
concentration in plasma, Conc. ([1]; time 24 h, individual rats R49, R50, R51): BLOQ (BLOQ = below limit of quantitation (0.2 ng/mL))
AUCInf [1, 3]: 840 ng·h/mL and 1074 ng·h/mL and 2115 ng·h/mL
AUClast [1, 3]: 764 ng·h/mL and 899 ng·h/mL and 1486 ng·h/mL
AUClast/D [1, 3]: 76.4 kg·ng·h/mL/mg and 89.9 kg·ng·h/mL/mg and 149 kg·ng·h/mL/mg
AUC—% Extrap_obs [1, 3]: 9.10% and 16.3% and 29.8%
Cmax [1, 3]: 231 ng/mL and 226 ng/mL and 401 ng/mL
MRTInf_obs [1, 3]: 3.53 h and 4.44 h and 6.73 h
T1/2 [1, 3]: 2.37 h and 3.05 h and 4.97 h
Tmax [1, 3]: 0.25 h (2×) and 0.5 h
AUCInf, Mean ([1]; plasma, mean of R49-R51): 1343 ng·h/mL
AUClast, Mean ([1]; plasma, mean of R49-R51): 1049 ng·h/mL
AUClast/D, Mean ([1]; plasma, mean of R49-R51): 105 kg·ng·h/mL/mg
AUC—% Extrap_obs, Mean ([1]; plasma, mean of R49-R51): 18.4%
Cmax, Mean ([1]; plasma, mean of R49-R51): 286 ng/mL
MRTInf_obs, Mean ([1]; plasma, mean of R49-R51): 4.90 h
T1/2, Mean ([1]; plasma, mean of R49-R51): 3.46 h
Tmax, Mean ([1]; plasma, mean of R49-R51): 0.333 h
solubility in water [2]: approximately 20 mg/mL
